We go through one sequence from article PMC8571378, “Reversion analysis reveals the in vivo immunogenicity of a poorly MHC I-binding cancer neoepitope” (Nature Communications, 2021).

One assay deals with splenic CD8 T cells. Put plainly: ELIspot for interferon γ of splenic CD8 T cells from immunized mice. The assay is classed as cell-based, BALB/c mice. The following applies: spleens seven days after second immunization; in vitro stimulation with immunizing 18-mer, 10 µM. From the text:
BALB/c mice were immunized with 18-mer peptides containing Ccdc85c^MUT as well as Ccdc85c^WT as described in Methods. Spleens were harvested seven days after the second immunization and splenic CD8 T cells tested by ELIspot for interferon γ production in response to stimulation in vitro with the peptides used for immunization. […] Since the CD8 response detected in vitro was so modest, CD8 response as detected in vivo in the tumor microenvironment became our focus.
Supplementary Fig. 3. CD8 response to Ccdc85cMUT and Ccdc85cWT peptides. BALB/c mice were immunized twice at a weekly interval with 18-mer peptides containing Ccdc85cWT (left) or Ccdc85cMUT (right) as described in Methods. Spleens were harvested seven days after the second immunization and CD8 T cells stimulated in vitro with the peptides (10 µM concentration) used for immunization, as indicated. CD8 cells were analyzed for release of interferon g. Each dot represents a single mouse. The P values were calculated using two tailed t-test. Data are presented as mean values +/- SD. […]

Assay [1] deals with Meth A. Put plainly: Tumor rejection (immunization-challenge) assay; tumor growth AUC and tumor rejection score (TRS). The assay is classed as in vivo, BALB/cJ mice. The protocol: Each line represents tumor growth in a single mouse (n = 5 mice per group). AUC for each group is plotted in the panel on the right. Data are presented as mean ± SD. P values were calculated using 1-way ANOVA test adjusted for multiple comparisons (Tukey’s multiple comparison test). c Several truncated versions of the 18-mer Ccdc85c^MUT peptide were tested in tumor rejection assay. BALB/cJ mice were immunized and tumor challenged. Each line represents tumor growth in a single mouse. Although mice were immunized with individual peptides, the data for multiple peptides are grouped into one with the composition of the peptides shown on the right. The tumor rejection data for individual peptides are shown in Supplementary Fig. 1. Tumor rejection score (TRS) for each neoepitope is shown in the yellow box, where five represents a complete tumor protection and zero means no tumor rejection. d On the left panel, total Area Under the Curve (AUC) scores for each group in B are plotted. […] Error bars represent standard deviation (SD). […] P values were calculated using 1-way ANOVA test adjusted for multiple comparisons. […] Matched peak lists for the “heavy” and “light” ions were extracted and monitored, while only single charge y ions were plotted. See Methods for details. f Predicted (by NetMHC4.0) and measured IC50 values of the binding of candidate precise neoepitopes of Ccdc85c^MUT to K^d are shown. […] The affinities of the MS/TRS predicted neoepitopes were also measured for D^d and L^d; measured affinities were below the level of detection.
The mutation is heterozygous and the un-mutated as well as the mutated reads are detected in the transcripts. […] All mice were challenged with the Meth A cells, and tumor rejection was monitored (Fig. 1b upper panel). […]
Area under the curve (AUC) is used as a tool to measure tumor growth. Briefly, AUC was calculated by selecting “Curves & Regression” and then “Area under curve” from the “analyze” tool, using the Prism 5.0 (GraphPad). […]

Assay [2] relates to Meth A. The following applies: anti-CD8 antibody during the priming phase; control antibody without effect; as previously described; cited from earlier work. From the text:
The mutation is heterozygous and the un-mutated as well as the mutated reads are detected in the transcripts. BALB/cJ bone marrow derived dendritic cells (BMDCs) pulsed with an 18-mer peptide with the mutant amino acid near the center ([…]) or un-mutated peptide ([…]), were used to immunize BALB/cJ mice. All mice were challenged with the Meth A cells, and tumor rejection was monitored (Fig. 1b upper panel).

As for “DPSSTYIRPFETKVKLLD [18-mer peptide with the mutant amino acid near the center]”, the “CD8 response (interferon γ ELIspot)” value in the assay on splenic CD8 T cells is on record as “very modest but statistically significant CD8 response”. Further, the “tumor rejection (in words)” value in the assay on Meth A [1] (BALB/cJ mice immunized twice, CTLA4 blockade) was “potent tumor rejection or control in all mice”. Besides, the “Tumor rejection score (TRS)” value in the assay on Meth A [1] (BALB/cJ mice, BMDCs pulsed with 40 µg peptide, two immunizations one week apart, CTLA4 blockade (9D9), scale 0 (no rejection) to 5 (100% of mice)) stood at 5.0. In addition, the “effect of CD8 depletion on anti-tumor activity” value with Meth A [2] is recorded as “abrogated”.
